Assay results from US20080090873A1, “Sulfonamide derivatives” (priority 2006, published 2008).

Columns and labels:
[1] = target: human adrenergic B2 receptor (Homo sapiens, UniProt P07550); assay: Whole cell luciferase reporter assay of agonist potency in CHO cells expressing the hB2 receptor; format: cell-based; settings: 4 h incubation, read-out: EC50 - beta2
Protocol: Functional Assessment of Agonist Potency and Efficacy Using a Whole Cell Luciferase Reporter Assay in CHO Cells Expressing the hB2 Receptor.
CHO (Chinese Hamster Ovary) cells recombinantly expressing the human adrenergic B2 receptor and transfected with a luciferase enzyme reporter gene were maintained in growth media composed of F12:DMEM (Sigma D6421) containing 10% Foetal Bovine Serum (FBS: Sigma F03921) 10 μg/ml puromycin (Sigma N277698), 0.5 mg/ml Geneticin G418 (Sigma G7034) and 2 mM L-glutamine (Sigma G7513). The cells were kept in sterile conditions at 37° C., in an atmosphere containing 5% CO2.
hB2 Luciferase Assay Protocol
Cells were harvested for assay when they reached 80-90% confluency using enzyme free cell Dissociation Solution (Life technologies 13151-014) incubated with the cells for 5 min at 37° C. in an atmosphere containing 5% CO2. Detached cells were collected in warmed growth media (composition described above), and re-suspended in assay media (F12:DMEM (Sigma D6421) containing 1% Foetal Bovine Serum (FBS: Sigma F03921), 10 μg/ml puromycin (Sigma N277698), 0.5 mg/ml Geneticin G418 (Sigma G7034) and 2 mM L-glutamine (Sigma G7513)) to give a viable cell concentration of 1×10^6 cells/ml. 10 ul of this suspension was added to each well of a tissue culture treated low volume 384 well plate (Greiner788073) and the plate incubated in an atmosphere containing 5% CO2 at 37° C. for 2 h. Concentration ranges of test compounds were prepared in phosphate Buffered Saline containing 0.05% pluronic-F127 (Sigma P2443) and 2.5% DMSO. […] At the end of the incubation period 4 μl of Steady-Glo reagent (Steady-Glo Luciferase assay system (Promega E2520) was added to each well and the plate read immediately in a Leadseeker Plate reader (Amersham Bioscience) using a 660 nm filter. Concentration effect curves were plotted and EC50 values generated using a 4-parameter sigmoid fit using an in-house data analysis programme. Isoprenaline was run in every assay as a reference standard.

[2] = target: human muscarinic M3 receptor (Homo sapiens, UniProt P20309); assay: Whole cell β-lactamase reporter assay of antagonist activity in CHO cells expressing the hM3 receptor; format: cell-based; settings: NFAT β-lactamase reporter, inhibition of 80 nM carbamyl choline signal, 4 h
Protocol: Functional Assessment of Antagonist Activity Using a Whole Cell β-Lactamase Reporter Assay in CHO Cells Expressing the hM3 Receptor.
CHO (Chinese Hamster Ovary) cells recombinantly expressing the human muscarinic M3 receptor were transfected with the NFAT_β-Lac_Zeo plasmid. Cells were grown in DMEM with Glutamax-1, supplemented with 25 mM HEPES (Life Technologies 32430-027), containing 10% FCS (Foetal Calf Serum; Sigma F-7524), […] Sodium pyruvate (Sigma S-8636), NEAA (non-Essential Amino Acids; Invitrogen 11140-035) and 200 μg/ml Zeocin (Invitrogen R250-01).
Cells were harvested for assay when they reached 80-90% confluency using enzyme free cell Dissociation Solution (Life technologies 13151-014) incubated with the cells for 5 min at 37° C. in an atmosphere containing 5% CO2. Detached cells were collected in warmed growth media and centrifuged at 2000 rpm for 10 min, washed in PBS (Phosphate Buffered Saline; Life Technologies 14190-094) and centrifuged again as just described. The cells were re-suspended at 2×10^5 cells/ml in growth medium (composition as described above). 20 μl of this cell suspension was added to each well of a 384 well black clear bottomed plate (Greiner Bio One 781091-PFI). The assay buffer used was PBS supplemented with 0.05% Pluronic F-127 (Sigma 9003-11-6) and 2.5% DMSO. Muscarinic M3 receptor signalling was stimulated using 80 nM carbamyl choline (Aldrich N240-9) incubated with the cells for 4 h at 37° C./5% CO2 and monitored at the end of the incubation period using a Tecan SpectraFluor+ plate reader (λ-excitation 405 nm, emission 450 nm and 503 nm). Compounds under test were added to the assay at the beginning of the 4 h incubation period and compound activity measured as the concentration dependent inhibition of the carbamyl choline induced signal. Inhibition curves were plotted and IC50 values generated using a 4-parameter sigmoid fit and converted to Ki values using the Cheng-Prusoff correction and the KD value for carbamyl choline in the assay.

human muscarinic M3 receptor, sequence (P20309 whole entry): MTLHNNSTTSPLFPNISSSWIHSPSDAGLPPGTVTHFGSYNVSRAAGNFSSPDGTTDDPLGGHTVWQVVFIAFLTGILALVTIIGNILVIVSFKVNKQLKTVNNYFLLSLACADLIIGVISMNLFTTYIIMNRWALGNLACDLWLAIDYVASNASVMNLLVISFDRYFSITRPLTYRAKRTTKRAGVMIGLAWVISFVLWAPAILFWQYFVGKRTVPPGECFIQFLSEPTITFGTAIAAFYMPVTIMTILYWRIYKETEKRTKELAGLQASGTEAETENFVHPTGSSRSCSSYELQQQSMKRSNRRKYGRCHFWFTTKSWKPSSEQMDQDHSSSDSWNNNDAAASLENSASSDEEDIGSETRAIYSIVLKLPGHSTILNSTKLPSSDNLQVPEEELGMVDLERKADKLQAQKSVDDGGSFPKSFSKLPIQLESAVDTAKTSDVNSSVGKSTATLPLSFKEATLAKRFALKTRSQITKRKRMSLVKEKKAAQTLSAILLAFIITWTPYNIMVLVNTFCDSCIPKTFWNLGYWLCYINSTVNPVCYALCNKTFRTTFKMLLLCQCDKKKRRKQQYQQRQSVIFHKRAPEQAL
human adrenergic B2 receptor, sequence (P07550 whole entry): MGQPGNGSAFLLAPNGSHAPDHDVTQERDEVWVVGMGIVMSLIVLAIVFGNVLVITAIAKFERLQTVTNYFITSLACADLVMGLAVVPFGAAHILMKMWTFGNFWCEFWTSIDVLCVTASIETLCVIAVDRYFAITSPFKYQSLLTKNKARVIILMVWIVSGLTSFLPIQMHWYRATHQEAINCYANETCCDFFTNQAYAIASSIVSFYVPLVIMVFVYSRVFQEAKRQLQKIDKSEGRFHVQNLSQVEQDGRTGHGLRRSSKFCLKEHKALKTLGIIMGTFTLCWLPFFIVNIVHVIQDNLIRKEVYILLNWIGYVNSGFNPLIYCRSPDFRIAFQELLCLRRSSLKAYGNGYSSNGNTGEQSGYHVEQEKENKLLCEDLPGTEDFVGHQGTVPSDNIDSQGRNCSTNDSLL

Structure (SMILES) | EC50 [1] [pM] | IC50 [2] [pM]
CS(=O)(=O)Nc1cc([C@@H](O)CNCCCCCCCCCN2CCC(OC(=O)Nc3ccc(F)cc3-c3ccc(O)c(Cl)c3)CC2)ccc1O [Example 3, 1-(9-{[(2R)-2-hydroxy-2-{4-hydroxy-3-[(methylsulfonyl)amino]phenyl}ethyl]amino}nonyl)piperidin-4-yl(3′-chloro-5-fluoro-4′-hydroxybiphenyl-2-yl)carbamate] | 252 | 1070
CS(=O)(=O)Nc1cc([C@@H](O)CNCCCCCCCCCN2CCC(OC(=O)Nc3ccccc3-c3ccc(O)c(F)c3)CC2)ccc1O [Example 1, 1-(9-{[(2R)-2-Hydroxy-2-{4-hydroxy-3-[(methylsulfonyl)amino]phenyl}ethyl]amino}nonyl)piperidin-4-yl(3′-fluoro-4′-hydroxybiphenyl-2-yl)carbamate] | 1010 | 2930
CS(=O)(=O)Nc1cc([C@@H](O)CNCCCCCCCCCN2CCC(OC(=O)Nc3ccccc3-c3ccc(O)c(Cl)c3)CC2)ccc1O [Example 2, 1-(9-{[(2R)-2-Hydroxy-2-{4-hydroxy-3-[(methylsulfonyl)amino]phenyl}ethyl]amino}nonyl)piperidin-4-yl(3′-chloro-4′-hydroxybiphenyl-2-yl)carbamate] | 133 | 725
